Test results from PubChem BioAssay (NCI).
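48-hour exposure; five concentrations; linearly interpolated endpoints. TGI: concentration producing complete growth inhibition.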

Assays:
Assay in all cases: NCI anticancer screen, dose series, 48 h
[1] = system: 786-0 renal
[2] = system: A498 renal
[3] = system: A549 NSCLC
[4] = system: ACHN renal
[5] = system: BT-549 breast
[6] = system: CAKI-1 renal
[7] = system: CCRF-CEM leukemia
[8] = system: COLO 205 colon
[9] = system: DU-145 prostate
[10] = system: EKVX NSCLC
[11] = system: HCC-2998 colon
[12] = system: HCT-116 colon
[13] = system: HCT-15 colon
[14] = system: HL-60(TB) leukemia
[15] = system: HOP-62 NSCLC
[16] = system: HOP-92 NSCLC
[17] = system: HS 578T breast
[18] = system: HT29 colon
[19] = system: IGROV1 ovarian
[20] = system: K-562 leukemia
[21] = system: KM12 colon
[22] = system: LOX IMVI melanoma
[23] = system: M14 melanoma
[24] = system: MALME-3M melanoma
[25] = system: MCF7 breast
[26] = system: MDA-MB-231 breast
[27] = system: MDA-MB-435
[28] = system: MDA-N
[29] = system: NCI-H226 lung
[30] = system: NCI-H23 lung
[31] = system: NCI-H460 lung
[32] = system: NCI-H522 lung
[33] = system: NCI/ADR-RES ovarian
[34] = system: OVCAR-3 ovarian
[35] = system: OVCAR-4 ovarian
[36] = system: OVCAR-5 ovarian
[37] = system: OVCAR-8 ovarian
[38] = system: PC-3 prostate
[39] = system: RPMI-8226 leukemia
[40] = system: RXF 393 renal
[41] = system: SF-268 CNS
[42] = system: SF-295 CNS
[43] = system: SK-MEL-2 melanoma
[44] = system: SK-MEL-28 melanoma
[45] = system: SK-MEL-5 melanoma
[46] = system: SK-OV-3 ovarian
[47] = system: SN12C renal
[48] = system: SNB-19 CNS
[49] = system: SNB-75 CNS
[50] = system: SR leukemia
[51] = system: SW-620 colon
[52] = system: T-47D breast
[53] = system: TK-10 renal
[54] = system: U251 CNS
[55] = system: UACC-257 melanoma
[56] = system: UACC-62 melanoma
[57] = system: UO-31 renal
[58] = system: MOLT-4 leukemia
[59] = system: SF-539 CNS

Question: Which TGI [1] does the source give for `O=P(O)(OP(=O)(O)c1ccccc1)c1ccccc1` (tested in a mixture with another compound) here?
Answer: The TGI was over 100000 nM.

Question: And the TGI [2]?
Answer: The TGI was over 100 µM.

Question: What about the TGI [3] of the same molecule?
Answer: Its TGI is over 100 µM.

Question: What about the TGI [4] of the same molecule?
Answer: The TGI was over 100 µM.

Question: What about the TGI [5] of the same molecule?
Answer: The TGI was over 100 µM.

Question: What about the TGI [6] of the same molecule?
Answer: The TGI was over 100 µM.

Question: And the TGI [7]?
Answer: The TGI was over 100 µM.

Question: What about the TGI [8] of the same molecule?
Answer: Its TGI is over 100 µM.

Question: And the TGI [9]?
Answer: Its TGI is over 100 µM.

Question: What about the TGI [10] of the same molecule?
Answer: The TGI was over 100 µM.

Question: And the TGI [11]?
Answer: Its TGI is over 100000 nM.

Question: What about the TGI [12] of the same molecule?
Answer: The TGI was over 100 µM.

Question: And the TGI [13]?
Answer: Its TGI is over 100 µM.

Question: What about the TGI [14] of the same molecule?
Answer: Its TGI is over 100 µM.

Question: And the TGI [15]?
Answer: Its TGI is over 100000 nM.

Question: And the TGI [16]?
Answer: Its TGI is over 100 µM.

Question: What about the TGI [17] of the same molecule?
Answer: The TGI was over 100000 nM.

Question: And the TGI [18]?
Answer: Its TGI is over 100 µM.

Question: What about the TGI [19] of the same molecule?
Answer: The TGI was over 100 µM.

Question: What about the TGI [20] of the same molecule?
Answer: The TGI was over 100 µM.

Question: What about the TGI [21] of the same molecule?
Answer: Its TGI is over 100 µM.

Question: And the TGI [22]?
Answer: The TGI was over 100 µM.

Question: And the TGI [23]?
Answer: The TGI was over 100 µM.

Question: What about the TGI [24] of the same molecule?
Answer: The TGI was over 100000 nM.

Question: What about the TGI [25] of the same molecule?
Answer: Its TGI is over 100 µM.

Question: What about the TGI [26] of the same molecule?
Answer: The TGI was over 100000 nM.

Question: What about the TGI [27] of the same molecule?
Answer: Its TGI is over 100 µM.

Question: And the TGI [28]?
Answer: The TGI was over 100 µM.

Question: And the TGI [29]?
Answer: The TGI was over 100 µM.

Question: What about the TGI [30] of the same molecule?
Answer: Its TGI is over 100 µM.

Question: And the TGI [31]?
Answer: The TGI was over 100000 nM.

Question: And the TGI [32]?
Answer: Its TGI is over 100 µM.

Question: And the TGI [33]?
Answer: Its TGI is over 100 µM.

Question: And the TGI [34]?
Answer: Its TGI is over 100 µM.

Question: And the TGI [35]?
Answer: Its TGI is over 100 µM.

Question: And the TGI [36]?
Answer: The TGI was over 100 µM.

Question: And the TGI [37]?
Answer: The TGI was over 100 µM.

Question: What about the TGI [38] of the same molecule?
Answer: Its TGI is over 100000 nM.

Question: And the TGI [39]?
Answer: Its TGI is over 100 µM.

Question: What about the TGI [40] of the same molecule?
Answer: Its TGI is over 100000 nM.

Question: And the TGI [41]?
Answer: Its TGI is over 100000 nM.

Question: And the TGI [42]?
Answer: Its TGI is over 100 µM.

Question: And the TGI [43]?
Answer: Its TGI is over 100 µM.

Question: What about the TGI [44] of the same molecule?
Answer: The TGI was over 100000 nM.

Question: What about the TGI [45] of the same molecule?
Answer: Its TGI is over 100 µM.

Question: And the TGI [46]?
Answer: Its TGI is over 100 µM.

Question: And the TGI [47]?
Answer: The TGI was over 100 µM.

Question: What about the TGI [48] of the same molecule?
Answer: Its TGI is over 100 µM.

Question: And the TGI [49]?
Answer: The TGI was over 100000 nM.

Question: And the TGI [50]?
Answer: The TGI was over 100 µM.

Question: And the TGI [51]?
Answer: The TGI was over 100 µM.

Question: And the TGI [52]?
Answer: Its TGI is over 100 µM.

Question: What about the TGI [53] of the same molecule?
Answer: Its TGI is over 100 µM.

Question: What about the TGI [54] of the same molecule?
Answer: Its TGI is over 100000 nM.

Question: And the TGI [55]?
Answer: Its TGI is over 100 µM.

Question: What about the TGI [56] of the same molecule?
Answer: Its TGI is over 100 µM.

Question: And the TGI [57]?
Answer: The TGI was over 100 µM.

Question: `CCN1C/C(=C\c2cc(OC)c(OC)c(OC)c2)C2=NN(c3ccccc3)C(c3cc(OC)c(OC)c(OC)c3)C2C1` (centres undefined) was tested. Which TGI [1] did it give?
Answer: Its TGI is 1480 nM.

Question: And the TGI [2]?
Answer: The TGI was 43.6 µM.

Question: What about the TGI [3] of the same molecule?
Answer: Its TGI is 4.9 µM.

Question: And the TGI [4]?
Answer: The TGI was over 36 µM.

Question: What about the TGI [5] of the same molecule?
Answer: The TGI was 22 µM.

Question: And the TGI [6]?
Answer: Its TGI is 3.85 µM.

Question: What about the TGI [7] of the same molecule?
Answer: Its TGI is 8.3 µM.

Question: And the TGI [8]?
Answer: Its TGI is 7.13 µM.

Question: And the TGI [9]?
Answer: The TGI was 23.6 µM.

Question: What about the TGI [10] of the same molecule?
Answer: Its TGI is 11.4 µM.

Question: What about the TGI [11] of the same molecule?
Answer: Its TGI is 2250 nM.

Question: And the TGI [12]?
Answer: The TGI was 5.77 µM.

Question: And the TGI [13]?
Answer: Its TGI is 25.7 µM.

Question: What about the TGI [14] of the same molecule?
Answer: Its TGI is over 23.8 µM.

Question: What about the TGI [15] of the same molecule?
Answer: The TGI was 2510 nM.

Question: What about the TGI [16] of the same molecule?
Answer: The TGI was 13.5 µM.

Question: And the TGI [17]?
Answer: The TGI was 1320 nM.

Question: What about the TGI [18] of the same molecule?
Answer: Its TGI is 6.8 µM.

Question: And the TGI [19]?
Answer: The TGI was 21.3 µM.

Question: And the TGI [21]?
Answer: Its TGI is over 36 µM.

Question: And the TGI [22]?
Answer: Its TGI is 10.6 µM.

Question: And the TGI [23]?
Answer: Its TGI is 6.48 µM.

Question: And the TGI [24]?
Answer: Its TGI is 1640 nM.

Question: What about the TGI [25] of the same molecule?
Answer: Its TGI is over 38.1 µM.

Question: And the TGI [26]?
Answer: Its TGI is 1540 nM.

Question: What about the TGI [27] of the same molecule?
Answer: The TGI was 6.51 µM.

Question: What about the TGI [28] of the same molecule?
Answer: The TGI was 10.8 µM.

Question: What about the TGI [58] of the same molecule?
Answer: Its TGI is over 19.8 µM.

Question: And the TGI [29]?
Answer: The TGI was 11.1 µM.

Question: What about the TGI [30] of the same molecule?
Answer: The TGI was 19.2 µM.

Question: And the TGI [31]?
Answer: The TGI was 2240 nM.

Question: And the TGI [32]?
Answer: Its TGI is 3.06 µM.

Question: And the TGI [33]?
Answer: Its TGI is 7.4 µM.

Question: What about the TGI [34] of the same molecule?
Answer: Its TGI is over 25.1 µM.

Question: And the TGI [35]?
Answer: Its TGI is 24.6 µM.

Question: What about the TGI [36] of the same molecule?
Answer: Its TGI is 12.3 µM.

Question: What about the TGI [37] of the same molecule?
Answer: Its TGI is 4.72 µM.

Question: What about the TGI [38] of the same molecule?
Answer: Its TGI is 2460 nM.

Question: What about the TGI [40] of the same molecule?
Answer: Its TGI is 2200 nM.

Question: And the TGI [41]?
Answer: Its TGI is 1580 nM.

Question: And the TGI [42]?
Answer: The TGI was 18.5 µM.

Question: And the TGI [59]?
Answer: Its TGI is 1910 nM.

Question: And the TGI [43]?
Answer: Its TGI is 31.9 µM.

Question: And the TGI [44]?
Answer: The TGI was 2000 nM.

Question: And the TGI [45]?
Answer: Its TGI is 15.5 µM.

Question: And the TGI [46]?
Answer: Its TGI is 6.38 µM.

Question: What about the TGI [47] of the same molecule?
Answer: Its TGI is 11.3 µM.

Question: And the TGI [48]?
Answer: Its TGI is 6 µM.

Question: And the TGI [49]?
Answer: Its TGI is 1320 nM.

Question: And the TGI [50]?
Answer: The TGI was 65.5 µM.

Question: And the TGI [51]?
Answer: Its TGI is over 100 µM.

Question: What about the TGI [52] of the same molecule?
Answer: The TGI was 18 µM.

Question: What about the TGI [53] of the same molecule?
Answer: The TGI was 6.14 µM.

Question: What about the TGI [54] of the same molecule?
Answer: The TGI was 1850 nM.

Question: What about the TGI [55] of the same molecule?
Answer: Its TGI is 12.7 µM.

Question: What about the TGI [56] of the same molecule?
Answer: Its TGI is over 54.2 µM.

Question: And the TGI [57]?
Answer: Its TGI is 6.68 µM.
